# Results published in patent US9302999B2, “Substituted triazoles as herbicides” (E. I. DU PONT DE NEMOURS AND COMPANY, priority 2012, dated 2016).
# What was measured:
# Assay type in all cases: in vivo
# Settings in all cases: Preemergence, scale 0 to 100
# [1] = tested on: poinsettia, wild (wild poinsettia, Euphorbia heterophylla); assay: Test E pre-/postemergence: poinsettia, wild
# Source text: (§1) Seeds of plant species selected from corn (Zea mays), soybean (Glycine max), velvetleaf (Abutilon theophrasti), lambsquarters (Chenopodium album), poinsettia, wild (wild poinsettia, Euphorbia heterophylla), pigweed, palmer (palmer pigweed, Amaranthus palmeri), waterhemp (common waterhemp, Amaranthus rudis), smartweed (ladysthumb smartweed, Polygonum persicaria), surinam grass (Brachiaria decumbens), crabgrass, large (large crabgrass, Digitaria sanguinalis), crabgrass, Brazil (Brazilian crabgrass, Digitaria horizontalis), panicum, fall (fall panicum, Panicum dichotomiflorum), foxtail, giant (giant foxtail, Setaria faberii), foxtail, green (green foxtail, Setaria viridis), goosegrass (Eleusine indica), johnsongrass (Sorghum halepense), ragweed (common ragweed, Ambrosia elation), barnyardgrass (Echinochloa crus-galli), sandbur (southern sandbur, Cenchrus echinatus), arrowleaf sida (Sida rhombifolia), ryegrass, Italian (Italian ryegrass, Lolium multiflorum), dayflower, (VA) (Virginia dayflower, Commelina virginica), field bindweed (Convolvulus arvensis), cocklebur (common cocklebur, Xanthium strumarium), morningglory (Ipomoea coccinea), nightshade (eastern black nightshade, Solanum ptycanthum), kochia (Kochia scoparia), nutsedge, yellow (yellow nutsedge, Cyperus esculentus) and beggarticks (hairy beggarticks, Bidens pilosa) were planted into a silt loam soil and treated preemergence with test chemicals formulated in a non-phytotoxic solvent mixture which included a surfactant. At the same time, plants selected from these crop and weed species were planted in pots containing a growing medium comprising spaghnum peat moss, vermiculite, wetting agent and starter nutrients and treated with postemergence applications of some of the test chemicals formulated in the same manner. Plants ranged in height from 2 to 18 cm for postemergence treatments (1- to 4-leaf stage).
# (§2) Treated plants and controls were maintained in a greenhouse for 14 to 21 days, after which time all species were compared to controls and visually evaluated. Plant response ratings, summarized in Table E, are based on a scale of 0 to 100 where 0 is no effect and 100 is complete control. A dash (-) response means no test result.
# [2] = tested on: pigweed, palmer (palmer pigweed, Amaranthus palmeri); assay: Test E pre-/postemergence: pigweed, palmer
# Source text: as §1, §2
# [3] = tested on: crabgrass, large (large crabgrass, Digitaria sanguinalis); assay: Test E pre-/postemergence: crabgrass, large
# Source text: as §1, §2
# [4] = tested on: foxtail, giant (giant foxtail, Setaria faberii); assay: Test E pre-/postemergence: foxtail, giant
# Source text: as §1, §2
# [5] = tested on: ryegrass, Italian (Italian ryegrass, Lolium multiflorum); assay: Test E pre-/postemergence: ryegrass, Italian
# Source text: as §1, §2
# [6] = tested on: field bindweed (Convolvulus arvensis); assay: Test E pre-/postemergence: field bindweed
# Source text: as §1, §2
# [7] = tested on: cocklebur (common cocklebur, Xanthium strumarium); assay: Test E pre-/postemergence: cocklebur
# Source text: as §1, §2
# [8] = tested on: nutsedge, yellow (yellow nutsedge, Cyperus esculentus); assay: Test E pre-/postemergence: nutsedge, yellow
# Source text: as §1, §2
# [9] = tested on: beggarticks (hairy beggarticks, Bidens pilosa); assay: Test E pre-/postemergence: beggarticks
# Source text: as §1, §2
compound,measurement,setting,value
"FC(F)(F)COc1nn(-c2ccc(C(F)(F)F)cc2)nc1Cc1ccnc(C(F)(F)F)c1 [Compound 14, 4-[[5-(2,2,2-trifluoroethoxy)-2-[4-(trifluoromethyl)phenyl]-2H-1,2,3-triazol-4-yl]methyl]-2-(trifluoromethyl)pyridine]","Plant response rating: Poinsettia, Wild",[1]; 16 g ai/ha,15
same,"Plant response rating: Poinsettia, Wild",[1]; 31 g ai/ha,25
same,"Plant response rating: Poinsettia, Wild",[1]; 62 g ai/ha,50
same,"Plant response rating: Poinsettia, Wild",[1]; 125 g ai/ha,65
same,"Plant response rating: Poinsettia, Wild",[1]; 250 g ai/ha,75
same,"Plant response rating: Pigweed, Palmer",[2]; 16 g ai/ha,75
same,"Plant response rating: Pigweed, Palmer",[2]; 31 g ai/ha,100
same,"Plant response rating: Pigweed, Palmer",[2]; 62 g ai/ha,100
same,"Plant response rating: Pigweed, Palmer",[2]; 125 g ai/ha,100
same,"Plant response rating: Pigweed, Palmer",[2]; 250 g ai/ha,100
same,"Plant response rating: Crabgrass, Large",[3]; 16 g ai/ha,65
same,"Plant response rating: Crabgrass, Large",[3]; 31 g ai/ha,75
same,"Plant response rating: Crabgrass, Large",[3]; 62 g ai/ha,95
same,"Plant response rating: Crabgrass, Large",[3]; 125 g ai/ha,100
same,"Plant response rating: Crabgrass, Large",[3]; 250 g ai/ha,100
same,"Plant response rating: Foxtail, Giant",[4]; 16 g ai/ha,50
same,"Plant response rating: Foxtail, Giant",[4]; 31 g ai/ha,75
same,"Plant response rating: Foxtail, Giant",[4]; 62 g ai/ha,98
same,"Plant response rating: Foxtail, Giant",[4]; 125 g ai/ha,100
same,"Plant response rating: Foxtail, Giant",[4]; 250 g ai/ha,100
same,"Plant response rating: Ryegrass, Italian",[5]; 16 g ai/ha,0
same,"Plant response rating: Ryegrass, Italian",[5]; 31 g ai/ha,40
same,"Plant response rating: Ryegrass, Italian",[5]; 62 g ai/ha,85
same,"Plant response rating: Ryegrass, Italian",[5]; 125 g ai/ha,95
same,"Plant response rating: Ryegrass, Italian",[5]; 250 g ai/ha,100
same,Plant response rating: Field Bindweed,[6]; 16 g ai/ha,5
same,Plant response rating: Field Bindweed,[6]; 31 g ai/ha,20
same,Plant response rating: Field Bindweed,[6]; 62 g ai/ha,65
same,Plant response rating: Field Bindweed,[6]; 125 g ai/ha,65
same,Plant response rating: Field Bindweed,[6]; 250 g ai/ha,75
same,Plant response rating: Cocklebur,[7]; 16 g ai/ha,0
same,Plant response rating: Cocklebur,[7]; 31 g ai/ha,0
same,Plant response rating: Cocklebur,[7]; 62 g ai/ha,0
same,Plant response rating: Cocklebur,[7]; 125 g ai/ha,50
same,"Plant response rating: Nutsedge, Yellow",[8]; 16 g ai/ha,0
same,"Plant response rating: Nutsedge, Yellow",[8]; 31 g ai/ha,0
same,"Plant response rating: Nutsedge, Yellow",[8]; 62 g ai/ha,0
same,"Plant response rating: Nutsedge, Yellow",[8]; 125 g ai/ha,0
same,"Plant response rating: Nutsedge, Yellow",[8]; 250 g ai/ha,15
same,Plant response rating: Beggarticks,[9]; 16 g ai/ha,5
same,Plant response rating: Beggarticks,[9]; 31 g ai/ha,50
same,Plant response rating: Beggarticks,[9]; 62 g ai/ha,90
same,Plant response rating: Beggarticks,[9]; 125 g ai/ha,98
same,Plant response rating: Beggarticks,[9]; 250 g ai/ha,100
"COc1nn(-c2ccc(C(F)(F)F)cc2)nc1Cc1ccnc(C(F)(F)F)c1 [Compound 15, 4-[[5-methoxy-2-[4-(trifluoromethyl)phenyl]-2H-1,2,3-triazol-4-yl]methyl]-2-(trifluoromethyl)pyridine]","Plant response rating: Poinsettia, Wild",[1]; 16 g ai/ha,30
same,"Plant response rating: Poinsettia, Wild",[1]; 31 g ai/ha,30
same,"Plant response rating: Poinsettia, Wild",[1]; 62 g ai/ha,65
same,"Plant response rating: Poinsettia, Wild",[1]; 125 g ai/ha,75
same,"Plant response rating: Poinsettia, Wild",[1]; 250 g ai/ha,80
same,"Plant response rating: Pigweed, Palmer",[2]; 16 g ai/ha,100
same,"Plant response rating: Pigweed, Palmer",[2]; 31 g ai/ha,100
same,"Plant response rating: Pigweed, Palmer",[2]; 62 g ai/ha,100
same,"Plant response rating: Pigweed, Palmer",[2]; 125 g ai/ha,100
same,"Plant response rating: Pigweed, Palmer",[2]; 250 g ai/ha,100
same,"Plant response rating: Crabgrass, Large",[3]; 16 g ai/ha,15
same,"Plant response rating: Crabgrass, Large",[3]; 31 g ai/ha,90
same,"Plant response rating: Crabgrass, Large",[3]; 62 g ai/ha,100
same,"Plant response rating: Crabgrass, Large",[3]; 125 g ai/ha,100
same,"Plant response rating: Crabgrass, Large",[3]; 250 g ai/ha,100
same,"Plant response rating: Foxtail, Giant",[4]; 16 g ai/ha,65
same,"Plant response rating: Foxtail, Giant",[4]; 31 g ai/ha,98
same,"Plant response rating: Foxtail, Giant",[4]; 62 g ai/ha,100
same,"Plant response rating: Foxtail, Giant",[4]; 125 g ai/ha,100
same,"Plant response rating: Foxtail, Giant",[4]; 250 g ai/ha,100
same,"Plant response rating: Ryegrass, Italian",[5]; 16 g ai/ha,20
same,"Plant response rating: Ryegrass, Italian",[5]; 31 g ai/ha,75
same,"Plant response rating: Ryegrass, Italian",[5]; 62 g ai/ha,80
same,"Plant response rating: Ryegrass, Italian",[5]; 125 g ai/ha,100
same,"Plant response rating: Ryegrass, Italian",[5]; 250 g ai/ha,100
same,Plant response rating: Field Bindweed,[6]; 16 g ai/ha,5
same,Plant response rating: Field Bindweed,[6]; 31 g ai/ha,5
same,Plant response rating: Field Bindweed,[6]; 62 g ai/ha,40
same,Plant response rating: Field Bindweed,[6]; 125 g ai/ha,60
same,Plant response rating: Field Bindweed,[6]; 250 g ai/ha,95
same,Plant response rating: Cocklebur,[7]; 31 g ai/ha,0
same,Plant response rating: Cocklebur,[7]; 62 g ai/ha,0
same,Plant response rating: Cocklebur,[7]; 250 g ai/ha,20
same,"Plant response rating: Nutsedge, Yellow",[8]; 16 g ai/ha,0
same,"Plant response rating: Nutsedge, Yellow",[8]; 31 g ai/ha,0
same,"Plant response rating: Nutsedge, Yellow",[8]; 62 g ai/ha,0
same,"Plant response rating: Nutsedge, Yellow",[8]; 125 g ai/ha,0
same,"Plant response rating: Nutsedge, Yellow",[8]; 250 g ai/ha,0
same,Plant response rating: Beggarticks,[9]; 16 g ai/ha,5
same,Plant response rating: Beggarticks,[9]; 31 g ai/ha,5
same,Plant response rating: Beggarticks,[9]; 62 g ai/ha,50
same,Plant response rating: Beggarticks,[9]; 125 g ai/ha,80
same,Plant response rating: Beggarticks,[9]; 250 g ai/ha,100
Cc1nn(-c2ccc(C(F)(F)F)cn2)nc1Oc1ccnc(C(F)(F)F)c1 [Compound 23],"Plant response rating: Poinsettia, Wild",[1]; 16 g ai/ha,0
same,"Plant response rating: Poinsettia, Wild",[1]; 31 g ai/ha,0
same,"Plant response rating: Poinsettia, Wild",[1]; 62 g ai/ha,0
same,"Plant response rating: Poinsettia, Wild",[1]; 125 g ai/ha,35
same,"Plant response rating: Poinsettia, Wild",[1]; 250 g ai/ha,35
same,"Plant response rating: Pigweed, Palmer",[2]; 16 g ai/ha,90
same,"Plant response rating: Pigweed, Palmer",[2]; 31 g ai/ha,90
same,"Plant response rating: Pigweed, Palmer",[2]; 62 g ai/ha,100
same,"Plant response rating: Pigweed, Palmer",[2]; 125 g ai/ha,100
same,"Plant response rating: Pigweed, Palmer",[2]; 250 g ai/ha,100
same,"Plant response rating: Crabgrass, Large",[3]; 16 g ai/ha,5
same,"Plant response rating: Crabgrass, Large",[3]; 31 g ai/ha,5
same,"Plant response rating: Crabgrass, Large",[3]; 62 g ai/ha,35
same,"Plant response rating: Crabgrass, Large",[3]; 125 g ai/ha,70
same,"Plant response rating: Crabgrass, Large",[3]; 250 g ai/ha,100
same,"Plant response rating: Foxtail, Giant",[4]; 16 g ai/ha,0
same,"Plant response rating: Foxtail, Giant",[4]; 31 g ai/ha,5
same,"Plant response rating: Foxtail, Giant",[4]; 62 g ai/ha,5
same,"Plant response rating: Foxtail, Giant",[4]; 125 g ai/ha,100
same,"Plant response rating: Foxtail, Giant",[4]; 250 g ai/ha,100
same,"Plant response rating: Ryegrass, Italian",[5]; 16 g ai/ha,0
same,"Plant response rating: Ryegrass, Italian",[5]; 31 g ai/ha,0
same,"Plant response rating: Ryegrass, Italian",[5]; 62 g ai/ha,0
same,"Plant response rating: Ryegrass, Italian",[5]; 125 g ai/ha,0
same,"Plant response rating: Ryegrass, Italian",[5]; 250 g ai/ha,10
same,Plant response rating: Field Bindweed,[6]; 16 g ai/ha,0
same,Plant response rating: Field Bindweed,[6]; 31 g ai/ha,0
same,Plant response rating: Field Bindweed,[6]; 62 g ai/ha,0
same,Plant response rating: Field Bindweed,[6]; 125 g ai/ha,0
same,Plant response rating: Field Bindweed,[6]; 250 g ai/ha,70
same,Plant response rating: Cocklebur,[7]; 16 g ai/ha,0
same,Plant response rating: Cocklebur,[7]; 31 g ai/ha,0
same,Plant response rating: Cocklebur,[7]; 62 g ai/ha,0
same,Plant response rating: Cocklebur,[7]; 125 g ai/ha,0
same,Plant response rating: Cocklebur,[7]; 250 g ai/ha,0
same,"Plant response rating: Nutsedge, Yellow",[8]; 16 g ai/ha,0
same,"Plant response rating: Nutsedge, Yellow",[8]; 31 g ai/ha,0
same,"Plant response rating: Nutsedge, Yellow",[8]; 62 g ai/ha,0
same,"Plant response rating: Nutsedge, Yellow",[8]; 125 g ai/ha,15
same,"Plant response rating: Nutsedge, Yellow",[8]; 250 g ai/ha,15
